pIC50: −log10 of the molar value. Structures can show the parent of a compound that is named as a salt.

Chain of recombinant human Cathepsin S (P25774 115-331): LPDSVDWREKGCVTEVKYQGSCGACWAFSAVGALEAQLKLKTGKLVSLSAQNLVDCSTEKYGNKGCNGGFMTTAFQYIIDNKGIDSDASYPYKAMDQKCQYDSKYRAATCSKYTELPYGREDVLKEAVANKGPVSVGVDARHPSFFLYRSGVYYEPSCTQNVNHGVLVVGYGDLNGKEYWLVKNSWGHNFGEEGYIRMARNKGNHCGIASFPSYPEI

The first assay has as its target recombinant human Cathepsin S (Homo sapiens (Human), UniProt P25774). Kind of assay: Cathepsin S assay procedure (fluorogenic substrate Z-Val-Val-Arg-AMC). Particulars: pH5.5, fluorescence at 20 minutes, read-out: Cat S activity IC50. Type of assay: biochemical. How it is done:
25 μl of a 2 mg/l solution of activated recombinant human cathepsin S, in assay buffer, is then added to the well, yielding a final inhibitor concentration of 10 μM.
Enzyme activity is determined by measuring the fluorescence of the liberated aminomethylcoumarin at […] using 390 nm excitation, at 20 minutes. Percentage enzyme activity is calculated by comparison of this activity to that of a solution containing no inhibitor.
With `Cc1cccc(N2CCC(CCOc3ccc(-c4cc5c(ncn5C)c(C#N)n4)cc3C(F)(F)F)CC2)n1` [EP 09150709.5 - Example 24c, reference compound], the pIC50 (commonly the IC50 on a negative log10 scale, so that one unit is a factor of ten) is 7.59.
Still for that read-out and setting: the figure for `Cn1nnc2c(C#N)nc(-c3ccc(OCCC4CCNCC4)c(C(F)(F)F)c3)cc21` [Example 1, 1-methyl-6-(4-(2-(piperidin-4-yl)ethoxy)-3-(trifluoromethyl)phenyl)-1H-[1,2,3]triazolo[4,5-c]pyridine-4-carbonitrile] is 9.10.
Same read-out and setting: the same measure for `Cc1cccc(N2CCC(CCOc3ccc(-c4cc5c(nnn5C)c(C#N)n4)cc3C(F)(F)F)CC2)n1` [Example 4b, 1-methyl-6-(4-(2-(1-(6-methylpyridin-2-yl)piperidin-4-yl)ethoxy)-3-(trifluoromethyl)phenyl)-1H-[1,2,3]triazolo[4,5-c]pyridine-4-carbonitrile hydrochloride]: 8.05; for `CN(C)CCCOc1ccc(-c2cc3c(nnn3C)c(C#N)n2)cc1C(F)(F)F` [Example 35, 6-(4-(3-(dimethylamino)propoxy)-3-(trifluoromethyl)phenyl)-1-methyl-1H-[1,2,3]triazolo[4,5-c]pyridine-4-carbonitrile]: 8.48.

Still in this assay, the particulars now being: read-out: pIC50 (negative logarithm of the IC50 concentration) for inhibition of human cathepsin S (converted).
In the case of `Cn1nnc2c(C#N)nc(-c3ccc(OCCC4CCNCC4)c(C(F)(F)F)c3)cc21` [Example 1, 1-methyl-6-(4-(2-(piperidin-4-yl)ethoxy)-3-(trifluoromethyl)phenyl)-1H-[1,2,3]triazolo[4,5-c]pyridine-4-carbonitrile], the IC50 is < 10 nM.
Still for that read-out and setting: the same measure for `CNC(=O)CN1CCC(CCOc2ccc(-c3cc4c(nnn4C)c(C#N)n3)cc2C(F)(F)F)CC1` [Example 2b, 1-methyl-6-(4-(2-(1-(2-methylamino-2-oxoethyl)piperidin-4-yl)ethoxy)-3-(trifluoromethyl)phenyl)-1H-[1,2,3]triazolo[4,5-c]pyridine-4-carbonitrile TFA salt]: < 10 nM; for `Cn1nnc2c(C#N)nc(-c3ccc(OCCC4CCN(CC(N)=O)CC4)c(C(F)(F)F)c3)cc21` [Example 2c, 6-(4-(2-(1-(2-amino-2-oxoethyl)piperidin-4-yl)ethoxy)-3-(trifluoromethyl)phenyl)-1-methyl-1H-[1,2,3]triazolo[4,5-c]pyridine-4-carbonitrile]: < 10 nM.
Still for that read-out and setting: the same measure for `Cn1nnc2c(C#N)nc(-c3ccc(OCCC4CCN(Cc5ncon5)CC4)c(C(F)(F)F)c3)cc21` [Example 3c, 6-(4-(2-(1-((1,2,4-oxadiazol-3-yl)methyl)piperidin-4-yl)ethoxy)-3-(trifluoromethyl)phenyl)-1-methyl-1H-[1,2,3]triazolo[4,5-c]pyridine-4-carbonitrile]: < 10 nM.
As to `Cn1nnc2c(C#N)nc(-c3ccc(OCCC4CCN(Cc5ncno5)CC4)c(C(F)(F)F)c3)cc21` [Example 3k, 6-(4-(2-(1-((1,2,4-oxadiazol-5-yl)methyl)piperidin-4-yl)ethoxy)-3-(trifluoromethyl)phenyl)-1-methyl-1H-[1,2,3]triazolo[4,5-c]pyridine-4-carbonitrile], the IC50 was < 10 nM.
As for `Cn1nnc2c(C#N)nc(-c3ccc(OCCC4CCN(c5ccccn5)CC4)c(C(F)(F)F)c3)cc21` [Example 4a, 1-methyl-6-(4-(2-(1-(pyridin-2-yl)piperidin-4-yl)ethoxy)-3-(trifluoromethyl)phenyl)-1H-[1,2,3]triazolo[4,5-c]pyridine-4-carbonitrile hydrochloride], the IC50 is < 10 nM.
`Cc1cccc(N2CCC(CCOc3ccc(-c4cc5c(nnn5C)c(C#N)n4)cc3C(F)(F)F)CC2)n1` [Example 4b, 1-methyl-6-(4-(2-(1-(6-methylpyridin-2-yl)piperidin-4-yl)ethoxy)-3-(trifluoromethyl)phenyl)-1H-[1,2,3]triazolo[4,5-c]pyridine-4-carbonitrile hydrochloride]: the IC50 is < 10 nM.
On the same count and under the same terms, the figure for `Cc1ccc(N2CCC(CCOc3ccc(-c4cc5c(nnn5C)c(C#N)n4)cc3C(F)(F)F)CC2)nc1` [Example 8, 1-methyl-6-(4-(2-(1-(5-methylpyridin-2-yl)piperidin-4-yl)ethoxy)-3-(trifluoromethyl)phenyl)-1H-[1,2,3]triazolo[4,5-c]pyridine-4-carbonitrile hydrochloride] is < 10 nM; for `Cc1ccc(N2CC[C@@H](CCOc3ccc(-c4cc5c(nnn5C)c(C#N)n4)cc3C(F)(F)F)C2)nc1` [Example 9a, (S)-1-methyl-6-(4-(2-(1-(5-methylpyridin-2-yl)pyrrolidin-3-yl)ethoxy)-3-(trifluoromethyl)phenyl)-1H-[1,2,3]triazolo[4,5-c]pyridine-4-carbonitrile hydrochloride] it is < 10 nM; for `Cc1ccc(N2CC[C@H](CCOc3ccc(-c4cc5c(nnn5C)c(C#N)n4)cc3C(F)(F)F)C2)nc1` [Example 9b, (R)-1-methyl-6-(4-(2-(1-(5-methylpyridin-2-yl)pyrrolidin-3-yl)ethoxy)-3-(trifluoromethyl)phenyl)-1H-[1,2,3]triazolo[4,5-c]pyridine-4-carbonitrile hydrochloride] it is < 10 nM.
On the same count and under the same terms, the same measure for `Cn1nnc2c(C#N)nc(-c3ccc(OCCC4CCN(CCS(C)(=O)=O)CC4)c(C(F)(F)F)c3)cc21` [Example 19, 1-methyl-6-(4-(2-(1-(2-(methylsulfonyl)ethyl)piperidin-4-yl)ethoxy)-3-(trifluoromethyl)phenyl)-1H-[1,2,3]triazolo[4,5-d]pyridine-4-carbonitrile]: < 10 nM; for `Cn1nnc2c(C#N)nc(-c3ccc(OCc4ccccn4)c(C(F)(F)F)c3)cc21` [Example 20, 1-methyl-6-(4-(pyridin-2-ylmethoxy)-3-(trifluoromethyl)phenyl)-1H-[1,2,3]triazolo[4,5-c]pyridine-4-carbonitrile]: < 10 nM; for `Cn1nnc2c(C#N)nc(-c3ccc(OCc4cccc[n+]4[O-])c(C(F)(F)F)c3)cc21` [Example 21, 1-methyl-6-(4-(1-N-oxy-pyridin-2-ylmethoxy)-3-(trifluoromethyl)phenyl)-1H-[1,2,3]triazolo[4,5-c]pyridine-4-carbonitrile]: < 10 nM.
On the same count and under the same terms, the figure for `Cn1nnc2c(C#N)nc(-c3ccc(OCc4cccnc4)c(C(F)(F)F)c3)cc21` [Example 22, 1-methyl-6-(4-(pyridin-3-ylmethoxy)-3-(trifluoromethyl)phenyl)-1H-[1,2,3]triazolo[4,5-c]pyridine-4-carbonitrile] is < 10 nM.
For the compound `Cn1nnc2c(C#N)nc(-c3ccc(OCc4ccc[n+]([O-])c4)c(C(F)(F)F)c3)cc21` [Example 23, methyl-6-(4-(1-N-oxy-pyridin-3-ylmethoxy)-3-(trifluoromethyl)phenyl)-1H-[1,2,3]triazolo[4,5-c]pyridine-4-carbonitrile], the IC50 is < 10 nM.
Turning to `Cn1nnc2c(C#N)nc(-c3ccc(OCc4ccncc4)c(C(F)(F)F)c3)cc21` [Example 24, 1-methyl-6-(4-(pyridin-4-ylmethoxy)-3-(trifluoromethyl)phenyl)-1H-[1,2,3]triazolo[4,5-c]pyridine-4-carbonitrile], the IC50 is < 10 nM.
On the same count and under the same terms, the same measure for `Cn1nnc2c(C#N)nc(-c3ccc(OCc4cc[n+]([O-])cc4)c(C(F)(F)F)c3)cc21` [Example 25, methyl-6-(4-(1-N-oxy-pyridin-4-ylmethoxy)-3-(trifluoromethyl)phenyl)-1H-[1,2,3]triazolo[4,5-c]pyridine-4-carbonitrile]: < 10 nM; for `Cn1nnc2c(C#N)nc(-c3cnc(OCCC4CCNCC4)c(C(F)(F)F)c3)cc21` [Example 26, 1-Methyl-6-(6-(2-(piperidin-4-yl)ethoxy)-5-(trifluoromethyl)pyridin-3-yl)-1H-[1,2,3]-triazolo[4,5-c]pyridine-4-carbonitrile trifluoroacetate]: < 10 nM.
Same read-out and setting: the figure for `CN(C)C(=O)CN1CCC(CCOc2ncc(-c3cc4c(nnn4C)c(C#N)n3)cc2C(F)(F)F)CC1` [Example 27a, 6-(6-(2-(1-(2-Dimethylamino-2-oxo-ethyl)piperidin-4-yl)ethoxy)-5-(trifluoromethyl)pyridin-3-yl)-1-methyl-1H-[1,2,3]triazolo[4,5-c]pyridine-4-carbonitrile hydrochloride] is < 10 nM.
Still for that read-out and setting: the same measure for `Cn1nnc2c(C#N)nc(-c3ccc(OCCC4CCN(C(=O)C5(N)CC5)CC4)c(C(F)(F)F)c3)cc21` [Example 29, 6-(4-(2-(1-(1-aminocyclopropanecarbonyl)piperidin-4-yl)ethoxy)-3-(trifluoromethyl)phenyl)-1-methyl-1H-[1,2,3]triazolo[4,5-d]pyridine-4-carbonitrile]: < 10 nM; for `Cn1nnc2c(C#N)nc(-c3ccc(OCCC4CNC4)c(C(F)(F)F)c3)cc21` [Example 30, 6-(4-(2-(azetidin-3-yl)ethoxy)-3-(trifluoromethyl)phenyl)-1-methyl-1H-[1,2,3]triazolo[4,5-d]pyridine-4-carbonitrile 2,2,2-trifluoroacetate]: < 10 nM.
With `CN(C)C(=O)CN1CC(CCOc2ccc(-c3cc4c(nnn4C)c(C#N)n3)cc2C(F)(F)F)C1` [Example 31, 6-(4-(2-(1-(2-dimethylamino-2-oxoethyl)azetidin-3-yl)ethoxy)-3-(trifluoromethyl)phenyl)-1-methyl-1H-[1,2,3]triazolo[4,5-c]pyridine-4-carbonitrile Hydrochloride], the IC50 was < 10 nM.
Consider `Cn1nnc2c(C#N)nc(-c3ccc(OCCCO)c(C(F)(F)F)c3)cc21` [Example 32, 6-(4-(3-hydroxypropoxy)-3-(trifluoromethyl)phenyl)-1-methyl-1H-[1,2,3]triazolo[4,5-c]pyridine-4-carbonitrile], for which the IC50 is < 10 nM.
Turning to `CN(C)CCCOc1ccc(-c2cc3c(nnn3C)c(C#N)n2)cc1C(F)(F)F` [Example 35, 6-(4-(3-(dimethylamino)propoxy)-3-(trifluoromethyl)phenyl)-1-methyl-1H-[1,2,3]triazolo[4,5-c]pyridine-4-carbonitrile], the IC50 was < 10 nM.
In the case of `CCN(CC)CCCOc1ccc(-c2cc3c(nnn3C)c(C#N)n2)cc1C(F)(F)F` [Example 36q, 6-(4-(3-(diethylamino)propoxy)-3-(trifluoromethyl)phenyl)-1-methyl-1H-[1,2,3]triazolo[4,5-c]pyridine-4-carbonitrile], the IC50 was < 10 nM.
Still for that read-out and setting: the figure for `Cn1nnc2c(C#N)nc(-c3ccc(OCCCN4CCN(CCO)CC4)c(C(F)(F)F)c3)cc21` [Example 36t, 6-(4-(3-(4-(2-hydroxyethyl)piperazin-1-yl)propoxy)-3-(trifluoromethyl)phenyl)-1-methyl-1H-[1,2,3]triazolo[4,5-c]pyridine-4-carbonitrile dihydrochloride] is < 10 nM.

The values above are taken from US9115126B2, “1H-[1,2,3]triazolo[4,5-c]pyridine-4-carbonitrile derivatives” (Merck Sharp & Dohme B.V., priority 2010, dated 2015).
